# Measurements taken from patent US8710085B2, “Pyrrolidine-1,2-dicarboxamide derivatives” (Novartis AG, priority 2008, dated 2014).
# Legend:
# [1] = In vitro metabolic clearance, human liver microsomes (CYP MetCL-Hu); assay type: in vitro ADME; details: human liver microsomes 0.5 mg/mL, test article 1.0 μM, NADPH, 37° C.; read-out: CYP MetCL-Hu/CL(int)
# Protocol: (§1) Final test article and protein concentrations, as well as incubation duration, are shown below (Table 1). Low test article concentrations were selected to comply with the assumption that reaction kinetics are evaluated at a concentration less than (or approximately equal to) Km. DMSO is known to have an inhibitory effect on CYP activity. Therefore, the concentration of DMSO in the incubation media has been restricted to 0.01% (v/v) so that interference to the metabolic process is minimized.
# (§2) A typical experiment is performed in 96-well format with shaking incubation at 37° C. […] A 30 minutes negative control incubation (minus cofactor) is also performed to assess CYP-unrelated stability issues (eg, chemical instability, CYP-independent metabolism).
# In general, TA's in 10 mM DMSO are diluted 1:1000 into 0.6% ACN (v/v) in DiH20 to 10 μM. […] For evaluation of UGT-mediated metabolism, the suspension may be first pretreated by 5 min incubation on ice with alamethicin (25 μg/mg of microsomal protein). TA (35 μL) is added to 140 μL of the microsomal suspensions for 175 μL enzymesubstrate mixture. […] The 30 min negative control incubation is processed by combining 25 μL of enzyme.substrate mixture with an equal volume of 50 mM KPi containing 4 mM MgCl2. Following a 30 minute incubation at 37° C., the mix is quenched by adding 50 μL of ACN containing the MS internal standard (2 μM alprenolol). The T=0 min time point is processed by combining 25 μL of enzyme.substrate mixture directly with 50 μL of ACN containing the MS internal standard (2 μM alprenolol). 25 μL of the cofactor solution is added (2 mM NADPH in 50 mM KPi plus 4 mM MgCl2; optionally including 2 mM UDPGA for CYP+UGT assays) to simulate the complete quenched reaction mixture.
# (§3) The bulk reactions for the remaining time points are initiated by addition of 125 μL of cofactor solution (2 mM NADPH in 50 mM KPi plus 4 mM MgCl2) to the remaining 125 μL of enzyme.substrate mixture. […] All the samples are centrifuged at ˜3400×g at 4° C. for 10 min and the supernatants are analyzed by LC-MS/MS for quantitation of remaining TA. […]
# [2] = In vitro metabolic clearance, rat liver microsomes (CYP MetCL-Ra); assay type: in vitro ADME; details: rat liver microsomes 0.5 mg/mL, test article 1.0 μM, NADPH, 37° C.; read-out: CYP MetCL-Ra/CL(int)
# Protocol: as §1, §2
# In general, TA's in 10 mM DMSO are diluted 1:1000 into 0.6% ACN (v/v) in DiH20 to 10 μM. […] For evaluation of UGT-mediated metabolism, the suspension may be first pretreated by 5 min incubation on ice with alamethicin (25 μg/mg of microsomal protein). […]
# as §3
# PI3Kγ = target: T1, PI3Kγ (Homo sapiens, UniProt P48736, Q459R); assay: PI3K KinaseGlo assay, PI3Kγ; assay type: biochemical; details: 150 nM enzyme, 1 μM ATP, 90 mins, room temperature, read-out: PI3Kg/IC50
# T1 construct: p110γ(Δ143-[Met144-1102])-His; made in house; host or cells: Tn5 insect cells; construct from Roger Williams lab, MRC LMB
# Protocol: (§4) L-a-phosphatidylinositol (PI), provided as 10 mg/ml solution in methanol, was transferred into a glass tube and dried under nitrogen beam. It was then resuspended in 3% OctylGlucoside (OG) by vortexing and stored at 4° C. The KinaseGlo Luminescent Kinase Assay (Promega, Madison/WI, USA) is a homogeneous HTS method of measuring kinase activity by quantifying the amount of ATP remaining in solution following a kinase reaction.
# 5 μL of a mix of PI/OG with the PI3K subtype were added (Table 1). Kinase reactions were started by addition of 5 μl of ATP-mix containing in a final volume 10 μL 10 mM TRIS-HCl pH 7.5, 3 mM MgCl2, 50 mM NaCl, 0.05% CHAPS, 1 mM DTT and 1 μM ATP, and occurred at room temperature. […] The standard was used as a reference compound and included in all assay plates in the form of 16 dilution points in duplicate. […]
# (§5) PI3Kα, PI3Kβ and PI3Kγ were purified in two chromatographic steps: immobilized metal affinity chromatography (IMAC) on a Ni sepharose resin (GE Healthcare) and gel filtration utilizing a Superdex 200 26/60 column (GE Healthcare). All buffers were chilled to 4° C. and lysis was performed chilled on ice. Column fractionation was performed at room temperature. All buffers used to purify PI3Kβ contained 0.05% Triton X100 in addition to what is described below.
# (§6) The lysate was centrifuged at 45,000 g for 30 minutes, and the supernatant was loaded onto a pre-equilibrated IMAC column (3 mL resin/100 mL lysate). […] Protein was eluted with 20 mM Tris-Cl, pH 7.5, 0.5 M NaCl, 5% glycerol, 250 mM imidazole, 1 mM NaF, 0.1 μg/mL OAA, 5 mM BME, 1× Complete protease inhibitor cocktail—EDTA-free. Pertinent fractions were analyzed by SDS-PAGE and pooled accordingly. The protein was further purified by gel filtration on a Superdex 200 26/60 column equilibrated in 20 mM Tris-Cl, pH 7.5, 0.5 M NaCl, 5% glycerol, 1 mM NaF, 5 mM DTT, 1× Complete protease inhibitor cocktail—EDTA-free. Pertinent fractions were analyzed by SDS-PAGE and pooled accordingly. An equal volume of Dialysis Buffer (20 mM Tris-Cl, pH 7.5, 500 mM NaCl, 50% glycerol, 5 mM NaF, 5 mM DTT) was added to the pool and than dialyzed against Dialysis Buffer two changes (one change overnight). Protein was stored at −20° C.
# PI3Kα = target: T2, PI3Kα (Homo sapiens, UniProt P42336); assay: PI3K KinaseGlo assay, PI3Kα; assay type: biochemical; details: KinaseGlo; 10 nM enzyme, 1 μM ATP, 30 mins, room temperature; read-out: PI3Ka/IC50
# T2 construct: p110α(21-1068)-His; made in house; host or cells: baculovirus, Tn5 insect cells
# PI3Kβ = target: T3, PI3Kβ (Homo sapiens, UniProt P42338); assay: PI3K KinaseGlo assay, PI3Kβ; assay type: biochemical; details: KinaseGlo; 25 nM enzyme, 1 μM ATP, 30 mins, room temperature; read-out: PI3Kb/IC50
# T3 construct: p110β(2-1070)-His; made in house; host or cells: baculovirus, Tn5 insect cells
# Protocol: as §4, with “PI3K KinaseGlo assay: […] of compound dilutions were dispensed onto black 384-well low volume Non Binding Styrene (NBS) plates (Costar Cat. No. NBS#3676). L-a-phosphatidylinositol” for “L-a-phosphatidylinositol”
# 5 μL of a mix of PI/OG with the PI3K subtype were added (Table 1). Kinase reactions were started by addition of 5 μl of ATP-mix containing in a final volume 10 μL 10 mM TRIS-HCl pH 7.5, 3 mM MgCl2, 50 mM NaCl, 0.05% CHAPS, 1 mM DTT and 1 μM ATP, and occurred at room temperature. […] The standard was used as a reference compound and included in all assay plates in the form of 16 dilution points in duplicate.
# The PI3Kα, PI3Kβ and PI3Kδ constructs are fusion of p85α iSH2 domain and the respective p110 isoforms. The p85α fragment and p110 isoform genes were generated by PCR from first strand cDNA generated by RT-PCR from commercial RNA from placenta, testis and brain as described below. The PI3Kγ construct was obtained from Roger Williams lab, MRC Laboratory of Molecular Biology, Cambridge, UK (November, 2003) and is described (Pacold, Michael E.; Suire, Sabine; Perisic, Olga; Lara-Gonzalez, Samuel; Davis, Colin T.; Walker, Edward H.; Hawkins, Phillip T.; Stephens, Len; Eccleston, John F.; Williams, Roger L. Crystal structure and functional analysis of Ras binding to its effector phosphoinositide 3-kinase gamma. Cell (2000), 103(6), 931-943).
# BV949: PCR products for the inter SH2 domain (iSH2) of the p85 PI3Kα, PI13Kβ and PI3Kδ subunit and for the full-length p110β subunit were generated and fused by overlapping PCR. […] The p11013 fragment was obtained by PCR using as template a p110β clone (from unknown source that was sequence verified) using primers gwG130-p04 (5′-[…]-[…]-3′) (SEQ ID NO: 9) which contains linker sequences and the 5′ end of p110β and gwG130-p06 (5′-[…]-[…]-3′) (SEQ ID NO: 10) which contains sequences of the 3′ end of p110-β fused to a Histidine tag. […] This final product was recombined in a Gateway (Invitrogen) […] into the donor vector pDONR201 (Invitrogen) to generate the ORF253 entry clone. This clone was verified by sequencing and used in a Gateway LR reaction (Invitrogen) to transfer the insert into the Gateway adapted pBlueBac4.5 (Invitrogen) vector for generation of the baculovirus expression vector LR280.
# as §5
# as §6, with “accordingly.” for “accordingly. An equal volume of Dialysis Buffer (20 mM Tris-Cl, pH 7.5, 500 mM NaCl, 50% glycerol, 5 mM NaF, 5 mM DTT) was added to the pool and than dialyzed against Dialysis Buffer two changes (one change overnight). Protein was stored at −20° C.”
# PI3Kδ = target: T4, PI3Kδ (Homo sapiens, UniProt O00329); assay: PI3K KinaseGlo assay, PI3Kδ; assay type: biochemical; details: 10 nM enzyme, 1 μM ATP, 30 mins, room temperature, read-out: PI3Kd/IC50
# T4 construct: p85iSH2(461-568)-GGGGGG-p110δ(2-1044)-His; made in house; host or cells: baculovirus, Tn5 insect cells
# T4 sequence (O00329 with tags, fused parts or gaps): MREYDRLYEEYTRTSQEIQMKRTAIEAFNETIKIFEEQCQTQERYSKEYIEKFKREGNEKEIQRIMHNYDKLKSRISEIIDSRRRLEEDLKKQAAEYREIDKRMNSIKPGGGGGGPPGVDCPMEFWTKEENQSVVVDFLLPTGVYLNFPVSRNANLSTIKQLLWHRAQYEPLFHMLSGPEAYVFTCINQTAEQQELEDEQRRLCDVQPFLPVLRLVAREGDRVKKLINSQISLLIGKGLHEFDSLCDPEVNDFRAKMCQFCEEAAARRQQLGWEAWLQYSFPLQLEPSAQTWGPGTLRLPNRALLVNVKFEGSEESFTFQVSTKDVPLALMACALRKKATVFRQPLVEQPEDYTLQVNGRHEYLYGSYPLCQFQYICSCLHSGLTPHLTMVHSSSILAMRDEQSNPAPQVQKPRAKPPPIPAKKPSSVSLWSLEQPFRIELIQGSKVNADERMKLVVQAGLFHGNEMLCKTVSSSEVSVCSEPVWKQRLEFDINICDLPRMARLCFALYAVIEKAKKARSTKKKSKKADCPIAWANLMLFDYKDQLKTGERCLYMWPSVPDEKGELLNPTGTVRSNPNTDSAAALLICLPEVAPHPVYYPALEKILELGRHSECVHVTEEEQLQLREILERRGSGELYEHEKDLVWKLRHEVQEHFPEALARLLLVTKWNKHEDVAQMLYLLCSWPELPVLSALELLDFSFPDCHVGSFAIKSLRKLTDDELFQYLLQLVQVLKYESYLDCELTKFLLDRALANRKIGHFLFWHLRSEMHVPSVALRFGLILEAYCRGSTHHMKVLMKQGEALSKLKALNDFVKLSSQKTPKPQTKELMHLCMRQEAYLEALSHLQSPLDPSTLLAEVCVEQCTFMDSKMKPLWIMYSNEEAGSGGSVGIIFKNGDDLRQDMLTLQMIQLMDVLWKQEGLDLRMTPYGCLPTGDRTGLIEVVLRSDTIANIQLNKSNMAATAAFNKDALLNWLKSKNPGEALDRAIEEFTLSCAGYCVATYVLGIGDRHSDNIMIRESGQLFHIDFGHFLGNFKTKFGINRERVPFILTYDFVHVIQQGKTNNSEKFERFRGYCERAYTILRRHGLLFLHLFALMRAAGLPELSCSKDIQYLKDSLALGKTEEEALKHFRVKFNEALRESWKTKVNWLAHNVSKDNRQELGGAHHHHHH
# T1 sequence (P48736 with tags, fused parts or gaps Q459R): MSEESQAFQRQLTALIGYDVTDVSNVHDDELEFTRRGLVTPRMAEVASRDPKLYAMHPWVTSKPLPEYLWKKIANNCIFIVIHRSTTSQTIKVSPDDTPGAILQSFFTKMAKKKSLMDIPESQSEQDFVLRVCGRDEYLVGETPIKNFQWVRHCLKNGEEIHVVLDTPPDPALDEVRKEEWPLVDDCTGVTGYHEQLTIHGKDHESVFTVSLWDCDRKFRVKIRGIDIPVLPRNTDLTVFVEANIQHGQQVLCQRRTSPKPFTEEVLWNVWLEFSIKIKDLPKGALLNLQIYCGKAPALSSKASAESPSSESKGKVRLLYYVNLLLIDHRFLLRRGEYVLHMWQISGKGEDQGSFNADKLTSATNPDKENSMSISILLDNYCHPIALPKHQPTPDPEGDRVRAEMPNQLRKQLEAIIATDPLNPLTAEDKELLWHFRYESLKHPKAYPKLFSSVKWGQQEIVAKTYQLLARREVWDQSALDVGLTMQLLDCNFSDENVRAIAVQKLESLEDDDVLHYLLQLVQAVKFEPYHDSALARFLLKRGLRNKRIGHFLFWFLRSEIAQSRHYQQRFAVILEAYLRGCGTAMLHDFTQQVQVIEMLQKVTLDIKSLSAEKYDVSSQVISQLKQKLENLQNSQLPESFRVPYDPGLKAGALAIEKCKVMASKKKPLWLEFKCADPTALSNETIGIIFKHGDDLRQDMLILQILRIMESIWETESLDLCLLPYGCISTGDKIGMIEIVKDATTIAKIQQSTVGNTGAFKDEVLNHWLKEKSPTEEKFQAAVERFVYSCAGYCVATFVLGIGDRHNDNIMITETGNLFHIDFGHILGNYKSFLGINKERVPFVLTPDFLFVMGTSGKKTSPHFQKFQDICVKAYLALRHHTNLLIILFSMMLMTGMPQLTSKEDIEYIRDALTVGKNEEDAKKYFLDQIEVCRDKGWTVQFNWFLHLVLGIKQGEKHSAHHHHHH
# T2 sequence (P42336 with tags, fused parts or gaps): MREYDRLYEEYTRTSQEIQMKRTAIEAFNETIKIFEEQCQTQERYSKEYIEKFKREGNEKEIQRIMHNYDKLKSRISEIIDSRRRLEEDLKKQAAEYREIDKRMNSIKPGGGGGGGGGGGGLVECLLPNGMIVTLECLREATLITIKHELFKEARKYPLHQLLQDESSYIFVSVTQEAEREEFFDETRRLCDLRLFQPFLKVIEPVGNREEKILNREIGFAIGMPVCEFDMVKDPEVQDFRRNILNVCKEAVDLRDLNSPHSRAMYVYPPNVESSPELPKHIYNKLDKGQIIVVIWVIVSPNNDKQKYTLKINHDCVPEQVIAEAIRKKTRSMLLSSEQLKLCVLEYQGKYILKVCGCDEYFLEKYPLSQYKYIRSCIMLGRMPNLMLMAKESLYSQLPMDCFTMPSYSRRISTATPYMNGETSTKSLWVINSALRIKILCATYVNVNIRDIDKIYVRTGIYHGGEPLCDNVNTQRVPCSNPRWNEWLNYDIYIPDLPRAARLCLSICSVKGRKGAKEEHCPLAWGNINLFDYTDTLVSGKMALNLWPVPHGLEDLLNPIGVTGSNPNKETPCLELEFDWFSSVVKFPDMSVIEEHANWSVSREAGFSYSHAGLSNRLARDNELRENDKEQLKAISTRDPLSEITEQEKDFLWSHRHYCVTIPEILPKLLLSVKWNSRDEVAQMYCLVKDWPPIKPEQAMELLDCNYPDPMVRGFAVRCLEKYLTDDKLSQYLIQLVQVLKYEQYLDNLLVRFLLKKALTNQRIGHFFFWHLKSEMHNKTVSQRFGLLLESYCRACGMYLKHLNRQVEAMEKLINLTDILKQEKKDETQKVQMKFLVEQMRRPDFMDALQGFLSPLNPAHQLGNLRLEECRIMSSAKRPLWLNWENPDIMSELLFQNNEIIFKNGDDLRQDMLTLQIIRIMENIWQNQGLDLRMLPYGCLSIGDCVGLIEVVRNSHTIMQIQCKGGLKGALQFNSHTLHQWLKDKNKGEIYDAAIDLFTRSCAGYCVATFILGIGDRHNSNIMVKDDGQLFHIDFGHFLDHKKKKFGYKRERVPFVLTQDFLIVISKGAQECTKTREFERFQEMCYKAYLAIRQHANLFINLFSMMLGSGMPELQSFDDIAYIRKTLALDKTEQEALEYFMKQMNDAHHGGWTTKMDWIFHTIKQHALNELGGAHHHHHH
# T3 sequence (P42338 with tags, fused parts or gaps): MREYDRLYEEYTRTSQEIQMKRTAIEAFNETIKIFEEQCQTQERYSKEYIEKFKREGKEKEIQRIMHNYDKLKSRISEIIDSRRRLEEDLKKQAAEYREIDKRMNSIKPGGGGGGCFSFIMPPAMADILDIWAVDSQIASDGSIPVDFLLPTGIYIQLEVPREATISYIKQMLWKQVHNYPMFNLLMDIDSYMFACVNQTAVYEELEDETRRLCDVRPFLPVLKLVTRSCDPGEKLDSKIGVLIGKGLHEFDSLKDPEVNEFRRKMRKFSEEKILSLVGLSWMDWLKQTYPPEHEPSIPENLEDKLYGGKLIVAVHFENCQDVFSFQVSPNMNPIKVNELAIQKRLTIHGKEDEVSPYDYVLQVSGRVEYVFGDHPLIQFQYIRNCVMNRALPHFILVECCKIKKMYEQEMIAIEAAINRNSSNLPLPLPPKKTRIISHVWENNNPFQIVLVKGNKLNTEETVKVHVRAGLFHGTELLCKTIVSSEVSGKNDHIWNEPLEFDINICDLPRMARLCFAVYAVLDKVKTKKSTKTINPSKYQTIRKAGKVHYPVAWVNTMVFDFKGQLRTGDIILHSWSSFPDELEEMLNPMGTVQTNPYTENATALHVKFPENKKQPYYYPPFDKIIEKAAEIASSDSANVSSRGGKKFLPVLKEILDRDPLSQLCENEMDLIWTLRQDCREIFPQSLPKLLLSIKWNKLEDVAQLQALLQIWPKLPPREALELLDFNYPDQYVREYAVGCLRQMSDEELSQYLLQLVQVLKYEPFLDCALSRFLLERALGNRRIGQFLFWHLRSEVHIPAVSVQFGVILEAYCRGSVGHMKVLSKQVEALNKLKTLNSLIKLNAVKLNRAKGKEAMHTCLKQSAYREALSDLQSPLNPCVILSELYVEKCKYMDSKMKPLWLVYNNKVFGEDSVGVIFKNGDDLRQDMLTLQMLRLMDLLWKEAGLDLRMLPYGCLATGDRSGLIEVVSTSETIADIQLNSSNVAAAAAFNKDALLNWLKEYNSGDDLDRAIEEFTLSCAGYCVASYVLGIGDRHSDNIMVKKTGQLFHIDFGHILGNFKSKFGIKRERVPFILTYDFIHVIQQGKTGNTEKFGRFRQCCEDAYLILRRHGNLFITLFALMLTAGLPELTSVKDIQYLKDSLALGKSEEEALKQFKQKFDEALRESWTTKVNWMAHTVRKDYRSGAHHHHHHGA
structure (smiles),measurement,setting,value
"Cc1nc(NC(=O)N2CCC[C@H]2C(N)=O)sc1-c1ccnc(C(C)(C)C(F)(F)F)c1 [Example 15, (S)-Pyrrolidine-1,2-dicarboxylic acid 2-amide 1-({4-methyl-5-[2-(2,2,2-trifluoro-1,1-dimethyl-ethyl)-pyridin-4-yl]-thiazol-2-yl}-amide)]",microsomal CLint at 1 μM,[1],33 µL/min/mg
"Cc1nc(NC(=O)N2CCC[C@H]2C(N)=O)sc1-c1ccnc(C(C)(CF)CF)c1 [Example 55, (S)-Pyrrolidine-1,2-dicarboxylic acid 2-amide 1-({5-[2-(2-fluoro-1-fluoromethyl-1-methyl-ethyl)-pyridin-4-yl]-4-methyl-thiazol-2-yl}-amide)]",microsomal CLint at 1 μM,[1],27 µL/min/mg
same,microsomal CLint at 1 μM,[2],29 µL/min/mg
"Cc1nc(NC(=O)N2CCC[C@H]2C(N)=O)sc1-c1ccnc(C(C)(C)C(F)(F)F)n1 [Example 64, (S)-Pyrrolidine-1,2-dicarboxylic acid 2-amide 1-({4-methyl-5-[2-(2,2,2-trifluoro-1,1-dimethyl-ethyl)-pyrimidin-4-yl]-thiazol-2-yl}-amide)]",IC50,PI3Kγ,451 nM
same,IC50,PI3Kα,10 nM
same,IC50,PI3Kβ,692 nM
same,IC50,PI3Kδ,32 nM
"Cc1nc(NC(=O)N2CCC[C@H]2C(N)=O)sc1-c1cncc(C2CC2)n1 [Example 66, (S)-Pyrrolidine-1,2-dicarboxylic acid 2-amide 1-{[5-(6-cyclopropyl-pyrazin-2-yl)-4-methyl-thiazol-2-yl]-amide}]",IC50,PI3Kγ,435 nM
same,IC50,PI3Kα,13 nM
same,IC50,PI3Kβ,2740 nM
same,IC50,PI3Kδ,298 nM
"Cc1nc(NC(=O)N2CCC[C@H]2C(N)=O)sc1-c1ccnc(CC2CC2)n1 [Example 70, (S)-Pyrrolidine-1,2-dicarboxylic acid 2-amide 1-{[5-(2-cyclopropylmethyl-pyrimidin-4-yl)-4-methyl-thiazol-2-yl]-amide}]",melting point,,220 to 222 °C
"Cc1nc(NC(=O)N2CCC[C@H]2C(N)=O)sc1-c1ccnc(C(C)(C)CF)n1 [Example 71, (S)-Pyrrolidine-1,2-dicarboxylic acid 2-amide 1-({5-[2-(2-fluoro-1,1-dimethylethyl)-pyrimidin-4-yl]-4-methyl-thiazol-2-yl}-amide)]",melting point,,187 to 190 °C
"Cc1cc(-c2sc(NC(=O)N3CCC[C@H]3C(N)=O)nc2C)nc(C(C)(C)C)n1 [Example 72, (S)-Pyrrolidine-1,2-dicarboxylic acid 2-amide 1-{[5-(2-tert-butyl-6-methylpyrimidin-4-yl)-4-methyl-thiazol-2-yl]-amide}]",melting point,,197 to 199 °C
